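Growth conditions: 96-well plates. Treatment: test compound, 48 hours, 5 concentrations. Analysis: linear interpolation between bracketing concentrations; unreached endpoints set to highest concentration. The concentration for 50% growth inhibition is given as GI50. At the TGI there is no net growth.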
Columns and labels:
Test in all cases: growth of human tumour cells (NCI), 48 h
SNB-19 CNS = system: SNB-19 CNS
DLD-1 colon = system: DLD-1 colon
M19-MEL melanoma = system: M19-MEL melanoma
DMS 273 small cell lung = system: DMS 273 small cell lung
HCT-116 colon = system: HCT-116 colon
SF-295 CNS = system: SF-295 CNS
SK-MEL-2 melanoma = system: SK-MEL-2 melanoma
OVCAR-3 ovarian = system: OVCAR-3 ovarian
KM20L2 colon = system: KM20L2 colon
M14 melanoma = system: M14 melanoma
MALME-3M melanoma = system: MALME-3M melanoma
LOX IMVI melanoma = system: LOX IMVI melanoma

| SMILES | TGI (SNB-19 CNS) [µM] | TGI (DLD-1 colon) [µM] | TGI (M19-MEL melanoma) [µM] | TGI (DMS 273 small cell lung) [µM] | TGI (HCT-116 colon) [µM] | TGI (SF-295 CNS) [µM] | TGI (SK-MEL-2 melanoma) [µM] | TGI (OVCAR-3 ovarian) [µM] | TGI (KM20L2 colon) [µM] | TGI (M14 melanoma) [µM] | TGI (MALME-3M melanoma) [µM] | TGI (LOX IMVI melanoma) [µM] | GI50 (SNB-19 CNS) [µM] | GI50 (HCT-116 colon) [µM] | GI50 (SF-295 CNS) [µM] | GI50 (SK-MEL-2 melanoma) [µM] | GI50 (OVCAR-3 ovarian) [µM] | GI50 (M14 melanoma) [µM] | GI50 (MALME-3M melanoma) [µM] | GI50 (LOX IMVI melanoma) [µM] |
| --- | --- | --- | --- | --- | --- | --- | --- | --- | --- | --- | --- | --- | --- | --- | --- | --- | --- | --- | --- | --- |
| CC1=NS(=O)(=O)c2ccccc2N1 | > 100 | > 100 | > 100 | > 100 | > 100 | > 100 | > 100 | > 100 | > 100 | > 100 | > 100 | > 100 | – | – | – | – | – | – | – | – |
| Cc1cn(C2CC(O)C(CO)O2)c(=O)[nH]c1=O (stereo not given) | > 2850 | > 5000 | > 5000 | > 5000 | > 4240 | > 5000 | > 5000 | > 2650 | > 5000 | > 5000 | > 4900 | > 5000 | – | – | – | – | – | – | – | – |
| [O-][n+]1ccccc1Sc1nc(Sc2cccc[n+]2[O-])nc(Sc2cccc[n+]2[O-])n1 | 26.1 | – | – | – | 2.53 | 11.1 | 3.71 | 6.49 | – | 3.06 | 4.06 | 4 | – | – | – | – | – | – | – | – |
| Cc1cc(N(CCOS(C)(=O)=O)CCOS(C)(=O)=O)ccc1C=O | > 100 | – | – | – | > 100 | > 100 | 72.9 | 70.9 | – | 30.5 | 28.1 | 58.7 | – | – | – | – | – | – | – | – |
| CO[C@H]1/C=C(/C)CCC[C@H](C)[C@H](O)[C@@H](C)C(=O)C(C)(C)[C@@H](O)CC(=O)O[C@@H]1/C(C)=C/c1csc(C)n1 | > 100 | – | – | – | > 100 | 0.279 | – | 0.111 | – | > 100 | > 100 | > 100 | 0.0486 | < 0.0129 | < 0.0168 | 0.0186 | < 0.0161 | 0.0218 | 0.017 | 0.0162 |
| CSc1nsc(-c2ccccc2)[s+]1 | > 100 | > 100 | > 100 | > 100 | > 100 | – | > 100 | > 100 | > 100 | > 100 | > 100 | – | – | – | – | – | – | – | – | – |
| COc1ccc(-c2nc(SCC(=O)N/N=C/c3ccc(N(C)C)cc3)[nH]c2-c2ccc(OC)cc2)cc1 | > 100 | – | – | – | > 100 | > 100 | > 100 | > 100 | – | > 100 | > 100 | > 100 | – | – | – | – | – | – | – | – |
| CCCCC(C(=O)NCCNC(=O)CCC(=O)N(C)O)C(=O)NCCNC(=O)CCC(=O)N(C)O | > 100 | – | – | – | > 100 | > 100 | > 100 | > 100 | – | > 100 | > 100 | > 100 | – | – | – | – | – | – | – | – |
| CC1OC(OC2C(OC(=O)[C@]34CCC(C)(C)C[C@H]3C3=CC[C@@H]5[C@@]6(C)CC[C@H](OC7OC(C(=O)O)C(O)C(O)C7O)C(C)(C)[C@@H]6CC[C@@]5(C)[C@]3(C)C[C@H]4O)OCC(O)C2O)C(O)C(OC2OCC(O)(CO)C2O)C1OC1OCC(O)C(O)C1O (stereo not given in full) | 23.8 | – | – | – | 19.8 | 26.9 | 20 | 27.4 | – | 23.3 | 24.7 | 26.6 | – | – | – | – | – | – | – | – |
| COc1cc(/C=C/C(=O)CC(=O)/C=C/c2ccc(OC(=O)CCCCC3CCSS3)c(OC)c2)ccc1OC(=O)CCCCC1CCSS1 (stereo not given) | > 100 | – | – | – | > 100 | > 100 | > 100 | > 100 | – | > 100 | > 100 | > 100 | – | – | – | – | – | – | – | – |
| CC(=O)Nc1nc(C#N)[nH]c1C#N | > 100 | – | – | – | > 100 | > 100 | > 100 | > 100 | – | > 100 | > 100 | > 100 | – | – | – | – | – | – | – | – |

— PubChem BioAssay (NCI)
